# Values joined by “and” are separate entries in the source; they are usually repeats but may differ in a detail not shown here. Equal entries are not always repeated. Positions of bridges follow the written chain, without caps; N, C: chain ends. Non-standard residues stand in square brackets, D forms with d. Residues, ends and D or L forms follow the SMILES beside them. *: point of attachment. FITC = O=C1OC2(c3ccc(O)cc3Oc3cc(O)ccc32)c2ccc(NC(=S)*)cc21; R8 = C=CCCCCCC[C@@](C)(N)C(=O)O; S5 = C=CCCC[C@](C)(N)C(=O)O; AEEA = NCCOCCOCC(=O)O
# What was measured:
# K562 cells = experiment: Live cell confocal microscopy; format: cell-based, human; settings: fluorescein-labeled peptide 1 μM, 30 min, 37°C
# Procedure: Non-adherent K562 cells were counted and collected in 1.5 ml Eppendorf tubes at 30 000 cells per tube. After a wash, cells were re-suspended in 200 μl of phenol-red free media containing 5% FCS and fluorescein-labeled peptides (c(peptide) = 1 μM, t = 30 min) in the Eppendorf tubes at 37°C with vertical rotation to avoid cell pelleting. After incubation, cells were washed once with phenol-red free media, re-suspended again in the same media, and transferred into the wells of an 8-chamber μ-slide (Ibidi). Cells were immediately imaged at 37°C with an SP5 Laser Scanning Confocal Microscope (Leica). Fluorescein was excited with an argon ion laser at wavelength of 488 nm and fluorescence was detected in the range 505–530 nm.
# [1] = CD spectroscopy, secondary structure content; format: physicochemical; settings: fluorescein-labeled peptide 75 μM, 10 mM sodium phosphate pH 7.4, CDNN/PEPFIT; for Helix (α-helicity): unbound
# Procedure: Spectra of fluorescein-labeled peptides were recorded with a J-715 circular dichroism spectrometer (Jasco) using a stoppered quartz cuvette (1 mm; Hellma). Peptide samples (c = 75 μM) were prepared in buffer: 10 mM disodium hydrogen phosphate, pH 7.4. For each sample, 10 CD spectra were measured between λ = 190 and 260 nm with continuous scan mode (10 mdeg sensitivity, 1.0 nm resolution, 1.0 nm bandwidth, 2 s integration time, 50 nm/min scan rate). Obtained spectra were averaged, then subtracted from a reference buffer spectrum and smoothed using a fast Fourier transform filter (FFT filter). The mean residue ellipticity (Θ) (deg·cm^2·dmol^−1·10^4) was calculated using Formula (2) and plotted against wavelength (λ) (nm). The ratio of secondary structure elements was calculated with CDNN using the PEPFIT set of reference spectra for secondary structure determination ([45],[46]):(2) where [Θ]m = mean molar ellipticity per peptide bond (degree·cm^2·dmol^−1·10^4), Θ = measured ellipticity (degree), d = optical path length (cm), cg = mass concentration (g·l^−1), MRW = mean residue weight, M = molar mass of the peptide (g·mol^−1) and N = number of peptide bonds.
# proteinase K = proteinase K (Parengyodontium album, UniProt P06873); experiment: Protease stability assay; format: in vitro ADME; settings: for Half-life (t1/2): proteinase K 10 μg·ml^−1, fluorescein-labeled peptide 50 μM, 10 mM Tris pH 8.0, 150 mM NaCl, room temperature, HPLC absorbance 210 nm, exponential decay fit
# Procedure: Protease stability assays were performed in analogy to a previously published protocol ([47]). Stocks of fluorescein-labeled peptides were prepared to a concentration of 55.5 μM in assay buffer (10 mM Tris, pH 8.0, 150 mM NaCl) and separately stocks of proteinase K also in assay buffer (c = 100 μg·ml^−1). To begin each experiment, peptide and proteinase K stocks were mixed (final concentrations: c = 10 μg·ml^−1 proteinase K, c = 50 μM fluorescein-labeled peptide; final volume = 500 μl) and incubated at room temperature. At each time point, 50 μl of the reaction mixture was quenched by adding 100 μl of TFA/ACN/H2O (v/v/v, 1:49:49) and subsequently incubated for 2 min on ice. Following centrifugation (15 min, 13200 rpm, 4°C), samples (45 μl) were monitored by analytical HPLC using a linear gradient of 10–60% HPLC solvent B over 20 min. The amount of remaining peptide was quantified via absorbance at λ = 210 nm (intact peptide (%)) and plotted against time (t) (h). Half-life (t1/2) was calculated by fitting the data to an exponential decay using the software Prism 5.0 (GraphPad).
# ds pal-RNA = experiment: EMSA with ds pal-RNA; format: binding; settings: fluorescein-labeled peptide 6 μM, RNA 3 μM, 10% native PAGE, 4°C
# Procedure: Electrophoretic mobility shift assays (EMSAs) were performed using a Bio-Rad Mini-Protean gel system paired with a direct current (DC) power source (PowerPac™ HC, Bio-Rad). Typically, 6 μl solutions containing ds RNA (c = 3 μM) and fluorescein-labeled peptide (c = 6 μM) were incubated in binding buffer (10 mM Tris (pH 8.0), 0.5 mM EDTA, 12.5% glycerol and 150 mM KCl) at 4°C for 1 h. After incubation, bound RNA was resolved from peptide-free RNA using 10% non-denaturing polyacrylamide gels at 120 V in running buffer (25 mM Tris (pH 8.0), 200 mM glycine, 20 mM NaCl) at 4°C for 1 h. Visualization of fluorescent gel-bound species was conducted using a Typhoon Trio + fluorescence scanner (GE Healthcare Life Sciences). For nucleic acid visualization, gels were stained using 2 μl of SYBR™ gold nucleic acid gel dye (Molecular Probes) in 20 ml of TAE buffer (40 mM Tris, 1 mM EDTA, 20 mM acetic acid) for 45 min at RT before being visualized using a FluorChem™ gel documentation system (Alpha Innotech). To assess B3 binding to different ds RNA sequences (Supplementary Figure S20), 6 μl solutions containing hairpin RNA (c = 1 μM) and fluorescein-labeled B3 (c = 2 μM) were incubated in binding buffer (TAE and 10% glycerol) at RT for 1 h, and then resolved using 15% non-denaturing polyacrylamide gels (acrylamide/bis-acrylamide (19:1) in TAE) at 150 V in running buffer (TAE) at 4°C for 1.5 h. Visualization of fluorescent gel-bound species was conducted using a Bio-Rad ChemiDoc (Bio-Rad). Subsequently, gels were stained with SYBR™ gold nucleic acid gel dye (Invitrogen) as described above and visualized using the same imaging system. To assess B3 binding to pre–miR-21 (Supplementary Figure S24), the RNA was prepared at a fixed concentration (c = 1 μM) and incubated with varying concentrations of fluorescein-labeled B3 (c = 0–5 μM) in binding buffer (TAE and 10% glycerol) at RT for 1 h. After incubation, bound nucleic acid complexes were resolved using 15% non-denaturing polyacrylamide gels (acrylamide/bis-acrylamide (19:1) in TAE) at 150 V in running buffer (TAE) at 4°C for 1.5 h, followed by visualization and staining with SYBR™ gold nucleic acid gel dye (Invitrogen).
# proteinase K, sequence (P06873 106-384): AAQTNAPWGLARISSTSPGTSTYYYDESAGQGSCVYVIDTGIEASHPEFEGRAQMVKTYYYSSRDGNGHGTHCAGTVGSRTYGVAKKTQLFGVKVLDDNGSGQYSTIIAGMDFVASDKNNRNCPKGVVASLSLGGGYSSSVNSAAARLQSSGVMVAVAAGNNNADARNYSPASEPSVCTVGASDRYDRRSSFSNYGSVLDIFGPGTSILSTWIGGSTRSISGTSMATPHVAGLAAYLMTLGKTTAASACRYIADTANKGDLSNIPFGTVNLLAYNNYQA
smiles,measurement,setting,value
"CC(C)C[C@H](NC(=O)[C@]1(C)CCCC=CCCC[C@](C)(NC(=O)[C@H](CCC(=O)O)NC(=O)[C@H](CO)NC(=O)[C@@H]2CCCN2C(=O)[C@H](CO)NC(=O)[C@H](CCCCN)NC(=O)[C@H](Cc2c[nH]cn2)NC(=O)CNC(=O)[C@H](CCCNC(=N)N)NC(=O)[C@]2(C)CCCC=CCCC[C@](C)(NC(=O)[C@H](CCCCN)NC(=O)[C@H](Cc3c[nH]cn3)NC(=O)[C@H](CCCNC(=N)N)NC(=O)[C@H](CCCCN)NC(=O)[C@H](CCCNC(=N)N)NC(=O)[C@H](CCC(N)=O)NC(=O)[C@H](C)NC(=O)[C@H](CCC(N)=O)NC(=O)[C@H](CCCCN)NC(=O)[C@H](CCCCN)NC(=O)COCCOCCNC(=S)Nc3ccc4c(c3)C(=O)OC43c4ccc(O)cc4Oc4cc(O)ccc43)C(=O)N[C@@H](CC(N)=O)C(=O)N[C@@H](CCCNC(=N)N)C(=O)N[C@@H](CCCCN)C(=O)N2)C(=O)N[C@@H](CCCNC(=N)N)C(=O)N[C@@H](CCCNC(=N)N)C(=O)N[C@@H](CO)C(=O)N1)C(=O)N[C@@H](Cc1c[nH]c2ccccc12)C(=O)N[C@@H](Cc1c[nH]cn1)C(=O)N[C@@H](C)C(=O)N[C@@H](CCCNC(=N)N)C(N)=O [B3] ({FITC-AEEA}-KKQAQRKRHK[S5]NRK[S5]RGHKSPSE[S5]RRS[S5]LWHAR-NH2; staple 11-15, 24-28)",cell permeability by live cell confocal microscopy,K562 cells,confirming their cell permeability
same,Random coil,[1],9.3%
same,β-Sheet,[1],2.0%
same,β-Turn,[1],13.9%
same,Helix (α-helicity),[1],85.0% and 82–85%
same,Half-life (t1/2),proteinase K,6.18 h
same,binding to ds pal-RNA in EMSA,ds pal-RNA,full disappearance of the ds pal-RNA band
"CC(C)C[C@@H]1NC(=O)[C@@](C)(NC(=O)[C@H](CO)NC(=O)[C@H](CCCNC(=N)N)NC(=O)[C@H](CCCNC(=N)N)NC(=O)[C@H](CCC(N)=O)NC(=O)[C@H](CCC(=O)O)NC(=O)[C@H](CO)NC(=O)[C@@H]2CCCN2C(=O)[C@H](CO)NC(=O)[C@H](CCCCN)NC(=O)[C@H](Cc2c[nH]cn2)NC(=O)CNC(=O)[C@H](CCCNC(=N)N)NC(=O)[C@H](CCC(=O)O)NC(=O)[C@H](CCCCN)NC(=O)[C@H](CCCNC(=N)N)NC(=O)[C@H](CC(N)=O)NC(=O)[C@]2(C)CCCC=CCCCCCC[C@@](C)(NC(=O)[C@H](CCC(N)=O)NC(=O)[C@H](CCCCN)NC(=O)[C@H](CCCCN)NC(=O)COCCOCCNC(=S)Nc3ccc4c(c3)C(=O)OC43c4ccc(O)cc4Oc4cc(O)ccc43)C(=O)N[C@@H](CCC(N)=O)C(=O)N[C@@H](CCCNC(=N)N)C(=O)N[C@@H](CCCCN)C(=O)N[C@@H](CCCNC(=N)N)C(=O)N[C@@H](Cc3c[nH]cn3)C(=O)N[C@@H](CCCCN)C(=O)N2)CCCC=CCCC[C@@](C)(C(=O)N[C@@H](CCCNC(=N)N)C(N)=O)NC(=O)[C@H](Cc2c[nH]cn2)NC(=O)[C@H](Cc2c[nH]c3ccccc23)NC1=O [C1] ({FITC-AEEA}-KKQ[R8]QRKRHK[S5]NRKERGHKSPSEQRRS[S5]LWH[S5]R-NH2; staple 4-11, 28-32)",cell permeability by live cell confocal microscopy,K562 cells,confirming their cell permeability
same,Random coil,[1],47.0%
same,β-Sheet,[1],0.2%
same,β-Turn,[1],1.8%
same,Helix (α-helicity),[1],81.5% and 82–85%
same,Half-life (t1/2),proteinase K,10.6 h
same,fold increased stability compared to wt33,"proteinase K; proteinase K, fluorescein-labeled peptides",265 fold
same,binding to ds pal-RNA in EMSA,ds pal-RNA,full disappearance of the ds pal-RNA band
"CC(C)C[C@@H]1NC(=O)[C@H](CCC(=O)O)NC(=O)[C@H](CO)NC(=O)[C@@](C)(NC(=O)[C@H](CCCNC(=N)N)NC(=O)[C@H](CCC(N)=O)NC(=O)[C@H](CCC(=O)O)NC(=O)[C@H](CO)NC(=O)[C@@H]2CCCN2C(=O)[C@H](CO)NC(=O)[C@H](CCCCN)NC(=O)[C@H](Cc2c[nH]cn2)NC(=O)[C@]2(C)CCCC=CCCCCCC[C@@](C)(NC(=O)[C@H](Cc3c[nH]cn3)NC(=O)[C@H](CCCNC(=N)N)NC(=O)[C@H](CCCCN)NC(=O)[C@H](CCCNC(=N)N)NC(=O)[C@H](CCC(N)=O)NC(=O)[C@H](C)NC(=O)[C@H](CCC(N)=O)NC(=O)[C@H](CCCCN)NC(=O)[C@H](CCCCN)NC(=O)COCCOCCNC(=S)Nc3ccc4c(c3)C(=O)OC43c4ccc(O)cc4Oc4cc(O)ccc43)C(=O)N[C@@H](CC(C)C)C(=O)N[C@@H](CC(N)=O)C(=O)N[C@@H](CCCNC(=N)N)C(=O)N[C@@H](CCCCN)C(=O)N[C@@H](CCC(=O)O)C(=O)N[C@@H](CCCNC(=N)N)C(=O)N2)CCCC=CCCC[C@@](C)(C(=O)N[C@@H](Cc2c[nH]cn2)C(=O)N[C@@H](C)C(=O)N[C@@H](CCCNC(=N)N)C(N)=O)NC1=O [D1] ({FITC-AEEA}-KKQAQRKRH[R8]LNRKER[S5]HKSPSEQR[S5]SEL[S5]HAR-NH2; staple 10-17, 26-30)",cell permeability by live cell confocal microscopy,K562 cells,confirming their cell permeability
same,Random coil,[1],31.2%
same,β-Sheet,[1],12.0%
same,β-Turn,[1],9.9%
same,Helix (α-helicity),[1],48.5%
same,Half-life (t1/2),proteinase K,4.65 h
same,binding to ds pal-RNA in EMSA,ds pal-RNA,does not bind to ds pal-RNA
